Data as given in ChEMBL document CHEMBL5247590, “Novel nitrogen mustard-artemisinin hybrids with potent anti-leukemia action through DNA damage and activation of GPx” (Eur J Med Chem, 2022).
Activity calls are given as the source filed them. The rule behind the calls is not given here.

Tests used:
CCRF-CEM [1] = assay: Induction of cell cycle arrest in human CCRF-CEM cells assessed as cell accumulation at S phase at 0.25 uM incubated for 24 hrs by PI staining based flow cytometry analysis (reference value: 15.5 %); type: functional
CCRF-CEM [2] = assay: Induction of apoptosis in human CCRF-CEM cells assessed as early apoptotic cells at 4 uM incubated for 48 hrs by Annexin V-FITC/PI staining based flow cytometry (reference value: 13.4 %); type: functional
CCRF-CEM [3] = assay: Antiproliferative activity against human CCRF-CEM cells assessed as cell growth inhibition at 0.1875 to 20 uM by CCK8 assay; type: functional, cell-based; conditions: dose 0.1875-20 µM, time 24-48 hrs, TDE = time-dependent effect
CCRF-CEM [4] = assay: Induction of apoptosis in human CCRF-CEM cells assessed as viable cells at 0.5 uM incubated for 48 hrs by Annexin V-FITC/PI staining based flow cytometry (reference value: 83.4 %); type: functional; conditions: read-out: Activity
CCRF-CEM [5] = assay: Induction of cell cycle arrest in human CCRF-CEM cells assessed as cell accumulation at S phase at 0.5 uM incubated for 24 hrs by PI staining based flow cytometry analysis (reference value: 15.5 %); type: functional
CCRF-CEM [6] = assay: Induction of apoptosis in human CCRF-CEM cells assessed as early apoptotic cells at 2 uM incubated for 48 hrs by Annexin V-FITC/PI staining based flow cytometry (reference value: 13.4 %); type: functional
CCRF-CEM [7] = assay: Induction of DNA damage in human CCRF-CEM cells assessed as increase in gammaH2AX phosphorylation at 1 to 4 uM incubated for 24 hrs by DAPI staining based immunofluorescence microscopic analysis; type: functional, cell-based; conditions: dose 1-4 µM
CCRF-CEM [8] = assay: Induction of cell cycle arrest in human CCRF-CEM cells assessed as cell accumulation at S phase at 2 uM incubated for 24 hrs by PI staining based flow cytometry analysis (reference value: 15.5 %); type: functional
CCRF-CEM [9] = assay: Induction of apoptosis in human CCRF-CEM cells assessed as necrotic cells at 1 uM incubated for 48 hrs by Annexin V-FITC/PI staining based flow cytometry (reference value: 0.0 %); type: functional
CCRF-CEM [10] = assay: Downregulation of ROS level in human CCRF-CEM cells assessed as effect on CAT level at 0.125 to 0.5 uM incubated for 12 hrs in presence of NADPH by DCFH-DA probe based flow cytometry analysis; type: functional, cell-based; conditions: dose 0.125-0.5 µM
HCT-116 = assay: Antiproliferative activity against human HCT-116 cells assessed as cell growth inhibition incubated for 72 hrs by MTT assay; type: functional, cell-based; conditions: HCT-116, 72 h
CCRF-CEM [11] = assay: Induction of cell cycle arrest in human CCRF-CEM cells assessed as cell accumulation at G2/M phase at 1 uM incubated for 24 hrs by PI staining based flow cytometry analysis (reference value: 61.3 %); type: functional
[12] = Selectivity index, ratio of IC50 for human K562 cells to IC50 for human CCRF-CEM cells
CCRF-CEM [13] = assay: Inhibition of cell proliferation in human CCRF-CEM cells assessed as decrease in cell number upto 4 uM incubated for 12 hrs by cell counter analysis; type: functional, cell-based
CCRF-CEM [14] = assay: Downregulation of ROS level in human CCRF-CEM cells at 0.125 to 2 uM incubated for 12 hrs by DCFH-DA probe based flow cytometry analysis; type: functional, cell-based; conditions: dose 0.125-2 µM
CCRF-CEM [15] = assay: Induction of apoptosis in human CCRF-CEM cells assessed effect on cleaved caspase-3 expression at 0.25 to 0.5 uM incubated for 48 hrs by Western blot analysis; type: functional, cell-based; conditions: dose 0.25-0.5 µM
CCRF-CEM [16] = assay: Antiproliferative activity against human CCRF-CEM cells assessed as cell growth inhibition incubated for 24 to 72 hrs by CCK8 assay; type: functional, cell-based; conditions: dose 0.1875-20 µM, time 24-72 hrs
CCRF-CEM [17] = assay: Induction of cell cycle arrest in human CCRF-CEM cells assessed as cell accumulation at G1 phase at 2 uM incubated for 24 hrs by PI staining based flow cytometry analysis (reference value: 24.1 %); type: functional
CCRF-CEM [18] = assay: Induction of apoptosis in human CCRF-CEM cells assessed as late apoptotic cells at 0.25 uM incubated for 48 hrs by Annexin V-FITC/PI staining based flow cytometry (reference value: 3.2 %); type: functional
CCRF-CEM [19] = assay: Induction of apoptosis in human CCRF-CEM cells assessed as early apoptotic cells at 1 uM incubated for 48 hrs by Annexin V-FITC/PI staining based flow cytometry (reference value: 13.4 %); type: functional
CCRF-CEM [20] = assay: Induction of apoptosis in human CCRF-CEM cells assessed as late apoptotic cells at 4 uM incubated for 48 hrs by Annexin V-FITC/PI staining based flow cytometry (reference value: 3.2 %); type: functional
CCRF-CEM [21] = assay: Induction of apoptosis in human CCRF-CEM cells assessed as late apoptotic cells at 1 uM incubated for 48 hrs by Annexin V-FITC/PI staining based flow cytometry (reference value: 3.2 %); type: functional
CCRF-CEM [22] = assay: Induction of apoptosis in human CCRF-CEM cells assessed as viable cells at 4 uM incubated for 48 hrs by Annexin V-FITC/PI staining based flow cytometry (reference value: 83.4 %); type: functional; conditions: read-out: Activity
CCRF-CEM [23] = assay: Induction of apoptosis in human CCRF-CEM cells assessed effect on procaspase-3 expression at 0.25 to 0.5 uM incubated for 48 hrs by Western blot analysis; type: functional, cell-based; conditions: dose 0.25-0.5 µM
[24] = Selectivity index, ratio of IC50 for human HL-60 cells to IC50 for human CCRF-CEM cells
CCRF-CEM [25] = assay: Downregulation of ROS level in human CCRF-CEM cells assessed as increase in GPx activity at 0.125 to 2 uM incubated for 12 hrs in presence of NADPH by […]; type: functional, cell-based; conditions: dose 0.125-2 µM
K562 = assay: Antiproliferative activity against human K562 cells assessed as cell growth inhibition incubated for 72 hrs by MTT assay; type: functional, cell-based; conditions: K562, 72 h
CCRF-CEM [26] = assay: Induction of apoptosis in human CCRF-CEM cells assessed as nuclear collapse upto 4 uM incubated for 48 hrs by Hoechst staining based fluorescent microscopic analysis; type: functional, cell-based
CCRF-CEM [27] = assay: Induction of apoptosis in human CCRF-CEM cells assessed as necrotic cells at 0.5 uM incubated for 48 hrs by Annexin V-FITC/PI staining based flow cytometry (reference value: 0.0 %); type: functional
CCRF-CEM [28] = assay: Induction of apoptosis in human CCRF-CEM cells assessed as nuclear condensation upto 4 uM incubated for 48 hrs by Hoechst staining based fluorescent microscopic analysis; type: functional, cell-based
CCRF-CEM [29] = assay: Induction of cell cycle arrest in human CCRF-CEM cells assessed as cell accumulation at G2/M phase at 0.5 uM incubated for 24 hrs by PI staining based flow cytometry analysis (reference value: 61.3 %); type: functional
CCRF-CEM [30] = assay: Induction of apoptosis in human CCRF-CEM cells assessed as early apoptotic cells at 0.25 uM incubated for 48 hrs by Annexin V-FITC/PI staining based flow cytometry (reference value: 13.4 %); type: functional
[31] = Selectivity index, ratio of IC50 for human L02 cells to IC50 for human CCRF-CEM cells; type: toxicity; conditions: L02 cells and CCRF-CEM cells, read-out: Selectivity Index
CCRF-CEM [32] = assay: Induction of apoptosis in human CCRF-CEM cells assessed as necrotic cells at 2 uM incubated for 48 hrs by Annexin V-FITC/PI staining based flow cytometry (reference value: 0.0 %); type: functional

C[C@@H]1CC[C@H]2[C@@H](C)C(OC(=O)c3ccc(N(CCCl)CCCl)cc3)O[C@@H]3O[C@@]4(C)CC[C@@H]1[C@]32OO4 (some centres undefined)
Activity (CCRF-CEM [1]): 7.9% | Activity (CCRF-CEM [2]): 37.3% | Activity (CCRF-CEM [3]): Tde | viability at 0.5 µM (CCRF-CEM [4]): 64.4% | Activity (CCRF-CEM [5]): 6.8% | Activity (CCRF-CEM [6]): 33.4% | Activity (CCRF-CEM [7]): Active | Activity (CCRF-CEM [8]): 6.5% | Activity (CCRF-CEM [9]): 0.1% | Activity (CCRF-CEM [10]): Active | IC50 (HCT-116): 3.1 µM | Activity (CCRF-CEM [11]): 47.6% | Selectivity Index [12]: 1.82 | inhibition (CCRF-CEM [13]): Active | Activity (CCRF-CEM [14]): Dose-Dependent Effect | AC30 (CCRF-CEM [15]): inactive | Activity (CCRF-CEM [16]): Dose-Dependent Effect | Activity (CCRF-CEM [17]): 26.9% | Activity (CCRF-CEM [18]): 11.7% | Activity (CCRF-CEM [19]): 26.7% | Activity (CCRF-CEM [20]): 14.8% | Activity (CCRF-CEM [21]): 12.8% | viability at 4 µM (CCRF-CEM [22]): 47.8% | Activity (CCRF-CEM [23]): inactive | Selectivity Index [24]: 17.2 | Activity (CCRF-CEM [25]): Active | IC50 (K562): 22 µM | Activity (CCRF-CEM [26]): Active | Activity (CCRF-CEM [27]): 0.1% | Activity (CCRF-CEM [28]): Active | Activity (CCRF-CEM [29]): 70.8% | Activity (CCRF-CEM [30]): 20.5% | selectivity ratio [31]: 44.7 | Activity (CCRF-CEM [32]): 0.1%
